Experimental data published in patent US20020086278A1, “CHROMOGENIC MEDIA CONTAINING BLOOD OR HEMIN” (priority 1999, published 2002).
Like-named read-outs stand apart in the source and are kept apart here.

Key:
[1] = tested on: Streptococcus pneumoniae 6303; assay: Example 1: growth and colony color on plates surface-spread with chromogen; format: cell-based
[2] = tested on: Aeromonas hydrophilia (aehy); assay: Example 3: colony color on chromogenic TSA II with 5% sheep blood (chromogen in medium); format: cell-based; details: for Colony Color: CO2
[3] = tested on: Branhamella catarrhalis (brca); assay: as above; format: cell-based; details: for Colony Color: CO2
[4] = tested on: Candida albicans (caal); assay: as above; format: cell-based
[5] = tested on: Citrobacter freundii (cifr); assay: as above; format: cell-based; details: for Colony Color: CO2
[6] = tested on: Entercoccus faecalis (enfa); assay: as above; format: cell-based
[7] = tested on: E. faecium (enfu); assay: as above; format: cell-based; details: for Colony Color: enfu 49032
[8] = tested on: Klebsiella pneumoniae (klpn); assay: as above; format: cell-based
[9] = tested on: Salmonella spp. (sasp); format: cell-based; details: for Colony Color: CO2
[10] = tested on: Serratia marcescens (sema); assay: Example 3: colony color on chromogenic TSA II with 5% sheep blood (chromogen in medium); format: cell-based; details: for Colony Color: sema 13880, CO2
[11] = tested on: Streptococcus agalactiae (stag); assay: as above; format: cell-based
[12] = tested on: Staphylococcus aureus (stau); assay: as above; format: cell-based
[13] = tested on: Staphylococcus Coag Neg (step); assay: as above; format: cell-based; details: for Colony Color on Various Chromogenic TSA II with 5% Sheep Blood: 18 h
[14] = tested on: S. milleri (stmi); assay: as above; format: cell-based
[15] = tested on: S pyogenes (stpy); assay: as above; format: cell-based; details: for Colony Color: 21 h; for Colony Color on Various Chromogenic TSA II with 5% Sheep Blood: 18 h
[16] = Precipitate of chromogen on pre-plated media; format: physicochemical; details: After 1 week
Description: 50 μl of each chromogen solution was added to the surface of each of the following pre-plated media (one chromogen solution per plate):
The solution was dispersed using a spreader and allowed to dry 3-4 hours in a hood.

[17] = tested on: cakr 34135; assay: Example 3: colony color on chromogenic TSA II with 5% sheep blood (chromogen in medium); format: cell-based
[18] = tested on: milu 9341; assay: as above; format: cell-based
[19] = chromogenic TSA II with 5% Sheep Blood, 0.1 g/l, 3 strains tested
[20] = chromogenic TSA II with 5% Sheep Blood, 0.1 g/l, 2 strains tested
[21] = chromogenic TSA II with 5% Sheep Blood, 0.1 g/l, 6 strains tested
[22] = chromogenic TSA II with 5% Sheep Blood, 0.1 g/l, 1 strain tested
[23] = chromogenic TSA II with 5% Sheep Blood, 0.1 g/l

SMILES: CC(=O)N[C@H]1[C@H](Oc2c[nH]c3ccc(Br)c(Cl)c23)O[C@H](CO)[C@H](O)[C@@H]1O [X-Acglmn, 5-Br-4-Cl-3-indolyl-N-Acetyl-β-D-galactosaminide]
- Substrates Producing Color ([1]; Summary of Table I, S. pneumoniae 6303): X-Acglmn (TSA II
- Color ([1]; TSA II 5SB, S. pneu: 6303): blue
- Colony Color ([2]; aehy 7965, 18 h): db
- Colony Color ([2]; aehy 7965, 21 h): gb
- Colony Color ([2]; aehy 7966, 18 h): db
- Colony Color ([2]; aehy 7966, 21 h): gb
- Colony Color ([2]; aehy 49847, 18 h): db
- Colony Color ([2]; aehy 49847, 21 h): gb
- Colony Color (Summary) [2, 19]: +
- Colony Color ([3]; brca 25238, 18 h): 0
- Colony Color ([3]; brca 25238, 21 h): 0
- Colony Color ([3]; brca 25240, 21 h): 0
- Colony Color (Summary) [3, 20]: 0
- Colony Color ([4]; caal 10231, CO2, 24 h): gb
- Colony Color ([4]; caal 10231, air, 24 h): 0
- Colony Color (Summary) [4, 20]: +
- Colony Color ([4]; one C. albicans): blue
- Colony Color (Summary) [5, 20]: 0
- Colony Color ([5]; cifr 8454, 18 h): 0
- Colony Color ([5]; cifr 8454, 21 h): 0
- Colony Color ([5]; cifr 33128, 18 h): 0
- Colony Color ([5]; cifr 33128, 21 h): 0
- Colony Color (Summary) [6, 21]: +
- Colony Color ([6]; enfa 597, CO2, 18 h): db
- Colony Color ([6]; enfa 597, CO2, 21 h): db
- Colony Color ([6]; enfa 10741, CO2, 18 h): db
- Colony Color ([6]; enfa 10741, CO2, 21 h): db
- Colony Color ([6]; enfa 12953, CO2, 18 h): db
- Colony Color ([6]; enfa 12953, CO2, 21 h): db
- Colony Color ([6]; enfa 14506, CO2, 18 h): db
- Colony Color ([6]; enfa 14506, CO2, 21 h): db
- Colony Color ([6]; enfa 29212, CO2, 18 h): db
- Colony Color ([6]; enfa 29212, CO2, 21 h): db
- Colony Color ([6]; enfa 29212, CO2, 24 h): db
- Colony Color ([6]; enfa 29212, air, 24 h): db
- Colony Color (Summary) [7, 22]: +
- Colony Color ([7]; CO2, 18 h): lb
- Colony Color ([7]; CO2, 21 h): db
- Colony Color ([7]; air, 21 h): lb
- Colony Color (Summary) [8, 19]: 0
- Colony Color ([8]; klpn 13883, CO2, 18 h): 0
- Colony Color ([8]; klpn 13883, CO2, 21 h): 0
- Colony Color ([8]; klpn 33495, CO2, 18 h): vlgb
- Colony Color ([8]; klpn 33495, CO2, 24 h): 0
- Colony Color ([8]; klpn 33495, air, 24 h): 0
- Colony Color ([8]; klpn 33606, CO2, 18 h): 0
- Colony Color ([8]; klpn 33606, CO2, 21 h): 0
- Colony Color (Summary) [9, 20]: 0
- Colony Color ([9]; saty 19430, 18 h): 0
- Colony Color ([9]; saty 19430, 21 h): 0
- Colony Color ([9]; satym 14028, 18 h): 0
- Colony Color ([9]; satym 14028, 21 h): 0
- Colony Color (Summary) [10, 22]: +
- Colony Color ([10]; 18 h): gb
- Colony Color ([10]; 21 h): gb
- Colony Color (Summary) [11, 19]: 0
- Colony Color ([11]; stag 4768, CO2, 21 h): 0
- Colony Color ([11]; stag 4768, air, 21 h): 0
- Colony Color ([11]; stag 12386, CO2, 21 h): 0
- Colony Color ([11]; stag 12386, CO2, 24 h): 0
- Colony Color ([11]; stag 12386, air, 24 h): 0
- Colony Color (Summary) ([12]; chromogenic TSA II with 5% Sheep Blood, 0.1 g/l, 5 strains tested): 0
- Colony Color ([12]; stau 1006, CO2, 21 h): 0
- Colony Color ([12]; stau 1007, CO2, 21 h): 0
- Colony Color ([12]; stau 1008, CO2, 21 h): 0
- Colony Color ([12]; stau 1009, CO2, 21 h): 0
- Colony Color ([12]; stau 25923, CO2, 18 h): 0
- Colony Color ([12]; stau 25923, CO2, 24 h): 0
- Colony Color ([12]; stau 25923, air, 24 h): 0
- Colony Color on Various Chromogenic TSA II with 5% Sheep Blood ([12]; stau t006, CO2, 18 h): 0
- Colony Color on Various Chromogenic TSA II with 5% Sheep Blood ([12]; stau t007, CO2, 18 h): 0
- Colony Color on Various Chromogenic TSA II with 5% Sheep Blood ([12]; stau t008, CO2, 18 h): 0
- Colony Color on Various Chromogenic TSA II with 5% Sheep Blood ([12]; stau t009, CO2, 18 h): 0
- Colony Color ([13]; one S. epidermidis): blue
- Colony Color on Various Chromogenic TSA II with 5% Sheep Blood ([13]; step 12228, CO2): 0
- Colony Color ([13]; step 12228, CO2, 21 h): 0
- Colony Color ([13]; step 12228, air, 21 h): 0
- Colony Color on Various Chromogenic TSA II with 5% Sheep Blood ([13]; step cdc1, CO2): 0
- Colony Color ([13]; step cdc1, CO2, 21 h): 0
- Colony Color ([13]; step cdc1, air, 21 h): 0
- Colony Color ([13]; step cdc2, CO2, 21 h): 0
- Colony Color ([13]; step cdc2, air, 21 h): 0
- Colony Color ([13]; step cdc3, CO2, 21 h): 0
- Colony Color ([13]; step cdc3, air, 21 h): 1b
- Colony Color on Various Chromogenic TSA II with 5% Sheep Blood ([13]; step cdc4, CO2): 0
- Colony Color ([13]; step cdc4, CO2, 21 h): 0
- Colony Color ([13]; step cdc4, air, 21 h): 0
- Colony Color on Various Chromogenic TSA II with 5% Sheep Blood ([13]; stha cdc2, CO2): 0
- Colony Color on Various Chromogenic TSA II with 5% Sheep Blood ([13]; stsa cdc3, CO2): 0
- Growth vs. control [14, 23]: <grth
- Colony Color (Summary) [14, 20]: 0
- Colony Color on Various Chromogenic TSA II with 5% Sheep Blood ([14]; stmi 6242, CO2, 18 h): 0
- Colony Color ([14]; stmi 6249, air, 21 h): 0
- Growth vs. control [15, 23]: <grth
- Colony Color (Summary) [15, 21]: 0
- Colony Color ([15]; stpy 1027, CO2): 0
- Colony Color ([15]; stpy 1028, CO2): 0
- Colony Color ([15]; stpy 1029, CO2): 0
- Colony Color ([15]; stpy 1030, CO2): 0
- Colony Color ([15]; stpy 19615, CO2): 0
- Colony Color ([15]; stpy 19615, air): 0
- Colony Color ([15]; stpy 49117, CO2): 0
- Colony Color ([15]; stpy 49117, air): 0
- Colony Color on Various Chromogenic TSA II with 5% Sheep Blood ([15]; stpy 51339, CO2): 0
- Colony Color ([15]; stpy 51339, CO2): 0
- Colony Color ([15]; stpy 51339, air): 0
- Colony Color on Various Chromogenic TSA II with 5% Sheep Blood ([15]; stpy t027, CO2): 0
- Colony Color on Various Chromogenic TSA II with 5% Sheep Blood ([15]; stpy t028, CO2): 0
- Colony Color on Various Chromogenic TSA II with 5% Sheep Blood ([15]; stpy t029, CO2): 0
- Colony Color on Various Chromogenic TSA II with 5% Sheep Blood ([15]; stpy t030, CO2): 0
- Precipitate on plates after 1 week [16]: some precipitate was evident
- Colony Color ([17]; CO2, 18 h): 0
- Colony Color ([17]; CO2, 21 h): 0
- Colony Color ([18]; CO2, 18 h): ly
- Colony Color ([18]; CO2, 21 h): 0
